In ChEMBL document CHEMBL1130048, “Biological and conformational examination of stereochemical modifications using the template melanotropin peptide, Ac-Nle-c[Asp-His-Phe-Arg-Trp-Ala-Lys]-NH2, on human melanocortin receptors” (J Med Chem, 1997) one finds EC50 and IC50 data, which are given here for five compounds.

For experiment [1], the target named is T1, Melanocortin receptor 4 (Homo sapiens, UniProt P32245). The experiment in a line: Effective concentration for intracellular cAMP accumulation in L-cells expressing Melanocortin 4 receptor. The format is functional, cell-based.
T1 sequence (P32245 whole entry): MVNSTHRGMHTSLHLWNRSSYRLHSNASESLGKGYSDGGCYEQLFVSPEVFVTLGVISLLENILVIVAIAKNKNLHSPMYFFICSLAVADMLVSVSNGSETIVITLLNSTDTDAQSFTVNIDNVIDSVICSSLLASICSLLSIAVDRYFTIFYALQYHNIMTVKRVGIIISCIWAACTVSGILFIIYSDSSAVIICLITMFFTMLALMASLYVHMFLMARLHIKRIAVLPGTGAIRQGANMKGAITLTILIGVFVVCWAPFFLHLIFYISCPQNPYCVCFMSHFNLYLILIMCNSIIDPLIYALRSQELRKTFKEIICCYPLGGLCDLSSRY
Experiment [2] addresses T2, Melanocyte-stimulating hormone receptor (Homo sapiens, UniProt Q01726). The experiment in a line: Effective concentration for intracellular cAMP accumulation in L-cells expressing Melanocortin 1 receptor. The format is functional, cell-based. For orientation: Changes in cAMP serve as a functional read-out for many G protein-coupled receptors.
In experiment [3] the target is T2, Melanocyte-stimulating hormone receptor. Nature of the experiment: Inhibitory concentration against human Melanocortin 1 receptor (hMC1R).
A further experiment has as its target Melanocortin receptor 5 (Homo sapiens, UniProt P33032). Nature of the experiment: Inhibitory concentration against human Melanocortin 5 receptor (hMC5R).
In experiment [4] the target is T3, Melanocortin receptor 3 (Homo sapiens, UniProt P41968). The experiment in a line: Inhibitory concentration against human Melanocortin 3 receptor (hMC3R).
T3 sequence (P41968 whole entry): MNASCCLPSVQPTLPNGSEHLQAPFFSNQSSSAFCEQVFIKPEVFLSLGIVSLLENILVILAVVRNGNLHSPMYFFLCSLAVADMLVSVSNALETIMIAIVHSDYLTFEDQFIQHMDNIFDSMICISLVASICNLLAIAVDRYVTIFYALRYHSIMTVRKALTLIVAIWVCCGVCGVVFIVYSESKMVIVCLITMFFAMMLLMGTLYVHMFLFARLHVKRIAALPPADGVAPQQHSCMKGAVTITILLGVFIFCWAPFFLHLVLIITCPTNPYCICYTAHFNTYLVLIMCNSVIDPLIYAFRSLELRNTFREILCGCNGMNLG
Experiment [5] has as its target T3, Melanocortin receptor 3. Nature of the experiment: Effective concentration that was able to generate 50% maximal intracellular cAMP in L-cells transfected with Melanocortin 3 receptor. The class given is functional, cell-based.
Experiment [6] concerns the target T1, Melanocortin receptor 4. The experiment in a line: Inhibitory concentration against human Melanocortin 4 receptor (hMC4R).

As a reminder, the EC50 is the concentration at which the effect is half-maximal. Lower therefore signals higher potency in that assay. What is called IC50 is the concentration needed to halve the response being measured. Low values mean greater potency in that assay, high ones weaker potency in that assay.

T2 sequence (Q01726 whole entry): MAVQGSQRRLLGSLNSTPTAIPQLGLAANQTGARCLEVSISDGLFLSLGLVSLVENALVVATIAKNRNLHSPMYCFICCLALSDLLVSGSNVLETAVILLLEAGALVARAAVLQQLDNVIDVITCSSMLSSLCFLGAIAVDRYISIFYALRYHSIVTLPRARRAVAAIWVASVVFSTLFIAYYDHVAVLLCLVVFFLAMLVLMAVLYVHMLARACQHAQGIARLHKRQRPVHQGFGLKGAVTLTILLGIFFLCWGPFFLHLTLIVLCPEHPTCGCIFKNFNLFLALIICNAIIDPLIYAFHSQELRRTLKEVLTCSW
Chain of Melanocortin receptor 5 (P33032 whole entry): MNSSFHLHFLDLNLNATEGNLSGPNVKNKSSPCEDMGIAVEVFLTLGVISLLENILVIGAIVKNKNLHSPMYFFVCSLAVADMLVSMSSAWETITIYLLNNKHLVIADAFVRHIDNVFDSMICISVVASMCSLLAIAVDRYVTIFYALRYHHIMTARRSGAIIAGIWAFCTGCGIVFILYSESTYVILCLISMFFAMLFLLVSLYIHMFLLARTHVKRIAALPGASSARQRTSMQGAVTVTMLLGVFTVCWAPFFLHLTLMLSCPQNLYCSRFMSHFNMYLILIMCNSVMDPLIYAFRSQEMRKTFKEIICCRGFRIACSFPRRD

Take `CC(=O)N[C@@H]1CC(=O)NCCCC[C@H](C(N)=O)NC(=O)[C@@H](C)NC(=O)[C@H](Cc2c[nH]c3ccccc23)NC(=O)[C@@H](CCCNC(=N)N)NC(=O)[C@H](Cc2ccccc2)NC(=O)[C@@H](Cc2cnc[nH]2)NC1=O`: the EC50 on Melanocortin receptor 4 [1] is 2.92 nM; in experiment [2], 13.4 nM; at Melanocortin receptor 3 [5] it was 88.5 nM. Moreover, the IC50 is 1.94 nM in experiment [3], over 1000 nM at Melanocortin receptor 5, 102 nM at Melanocortin receptor 3 [4] and 2.03 nM against Melanocortin receptor 4 [6].
In experiment [2], `CCCC[C@H](NC(C)=O)C(=O)N[C@@H]1CC(=O)NCCCC[C@@H](C(N)=O)NC(=O)[C@H](C)NC(=O)[C@@H](Cc2c[nH]c3ccccc23)NC(=O)[C@H](CCCNC(=N)N)NC(=O)[C@H](Cc2ccccc2)NC(=O)[C@H](Cc2cnc[nH]2)NC1=O` gave an EC50 of 34.2 nM. This compound showed an IC50 in experiment [3] of 264 nM.
In experiment [2], `CCCC[C@H](NC(C)=O)C(=O)N[C@H]1CC(=O)NCCCC[C@@H](C(N)=O)NC(=O)[C@H](C)NC(=O)C(Cc2c[nH]c3ccccc23)NC(=O)[C@H](CCCN=C(N)N)NC(=O)[C@@H](Cc2ccccc2)NC(=O)[C@H](Cc2c[nH]cn2)NC1=O` (single isomer, unassigned) showed a concentration for a half-maximal effect (EC50) of 0.098 nM. Also, the IC50 in experiment [3] turned out to be 0.35 nM.
For the compound `CCCC[C@H](NC(C)=O)C(=O)N[C@H]1CC(=O)NCCCC[C@@H](C(N)=O)NC(=O)[C@H](C)NC(=O)C(Cc2c[nH]c3ccccc23)NC(=O)[C@H](CCCN=C(N)N)NC(=O)C(Cc2ccccc2)NC(=O)[C@H](Cc2c[nH]cn2)NC1=O` (single isomer, unassigned), the response in experiment [2] was half-maximal at 2.61 nM (EC50). For the same compound, the concentration for half-maximal inhibition (IC50) in experiment [3] is 22.4 nM.
`CCCC[C@H](NC(C)=O)C(=O)N[C@H]1CC(=O)NCCCC[C@@H](C(N)=O)NC(=O)[C@H](C)NC(=O)C(Cc2c[nH]c3ccccc23)NC(=O)[C@H](CCCN=C(N)N)NC(=O)[C@H](Cc2ccccc2)NC(=O)[C@H](Cc2c[nH]cn2)NC1=O` (single isomer, unassigned) had a half-maximal effective concentration (EC50) in experiment [2] of 0.3 nM. In experiment [3], this compound came in with a half-maximal inhibitory concentration (IC50) of 0.91 nM.
